Experimental data as given in PubChem BioAssay (NCI).
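Growth conditions: 96-well plates. Treatment: test compound, 48 hours, 5 concentrations. Analysis: linear interpolation between bracketing concentrations; unreached endpoints set to highest concentration. The concentration for 50% growth inhibition is given as GI50. At the TGI there is no net growth.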

Legend:
Experiment in all cases: NCI tumour cell line growth inhibition, 48 h
BT-549 breast = system: BT-549 breast
NCI-H23 lung = system: NCI-H23 lung
KM12 colon = system: KM12 colon
SK-MEL-28 melanoma = system: SK-MEL-28 melanoma
OVCAR-8 ovarian = system: OVCAR-8 ovarian
SF-295 CNS = system: SF-295 CNS
COLO 205 colon = system: COLO 205 colon
HCC-2998 colon = system: HCC-2998 colon
UACC-257 melanoma = system: UACC-257 melanoma
T-47D breast = system: T-47D breast

## O=C(Nc1nc2ccc(OC(F)(F)F)cc2s1)c1ccc(F)cc1
BT-549 breast
  GI50: 3.76 µM
  TGI: 54.6 µM
NCI-H23 lung
  GI50: 2.9 µM
  TGI: 8.73 µM
KM12 colon
  GI50: 2.69 µM
  TGI: > 100 µM
SK-MEL-28 melanoma
  GI50: 3.6 µM
  TGI: > 100 µM
OVCAR-8 ovarian
  GI50: 4.22 µM
  TGI: > 100 µM
SF-295 CNS
  GI50: 2.54 µM
  TGI: 9.35 µM
COLO 205 colon
  GI50: 2.11 µM
  TGI: 4.11 µM
HCC-2998 colon
  GI50: 3.91 µM
  TGI: > 100 µM
UACC-257 melanoma
  GI50: 3.57 µM
  TGI: 26.7 µM
T-47D breast
  GI50: 2.64 µM
  TGI: 9.78 µM

## CC1(C)CCC2(C(=O)O)C(O)CC3(C)C(=CCC4C5(C)CCC(OC6OCC(O)C(O)C6OC6OCC(O)C(O)C6OC6OCC(O)C(OC7OC(CO)C(O)C(O)C7O)C6O)C(C)(C)C5CCC43C)C2C1 (centres undefined)
BT-549 breast
  TGI: 86.4 µM
NCI-H23 lung
  TGI: 49.7 µM
KM12 colon
  TGI: 44.1 µM
SK-MEL-28 melanoma
  TGI: > 100 µM
OVCAR-8 ovarian
  TGI: > 100 µM
SF-295 CNS
  TGI: 42.8 µM
COLO 205 colon
  TGI: > 100 µM
HCC-2998 colon
  TGI: > 100 µM
UACC-257 melanoma
  TGI: > 100 µM
T-47D breast
  TGI: > 100 µM

## O=C(NNC1=NS(=O)(=O)c2ccccc2N1c1ccccc1)c1cnccn1
BT-549 breast
  GI50: > 100 µM
  TGI: > 100 µM
NCI-H23 lung
  GI50: > 100 µM
  TGI: > 100 µM
KM12 colon
  GI50: > 100 µM
  TGI: > 100 µM
SK-MEL-28 melanoma
  GI50: > 100 µM
  TGI: > 100 µM
OVCAR-8 ovarian
  GI50: > 100 µM
  TGI: > 100 µM
SF-295 CNS
  GI50: > 100 µM
  TGI: > 100 µM
COLO 205 colon
  GI50: > 100 µM
  TGI: > 100 µM
HCC-2998 colon
  GI50: > 100 µM
  TGI: > 100 µM
UACC-257 melanoma
  GI50: > 100 µM
  TGI: > 100 µM
T-47D breast
  GI50: > 100 µM
  TGI: > 100 µM

## CC(=O)NC(CCc1ccc(Cl)c(Cl)c1)c1cccc(O)c(=O)c1 (centres undefined)
BT-549 breast
  GI50: 0.803 µM
  TGI: 12.8 µM
NCI-H23 lung
  GI50: 1.11 µM
  TGI: 18.9 µM
KM12 colon
  GI50: 0.825 µM
  TGI: 17.8 µM
SK-MEL-28 melanoma
  GI50: 1.07 µM
  TGI: 12.3 µM
OVCAR-8 ovarian
  GI50: 0.346 µM
  TGI: 13.1 µM
SF-295 CNS
  GI50: 0.399 µM
  TGI: 10 µM
COLO 205 colon
  GI50: 0.363 µM
  TGI: 18.6 µM
HCC-2998 colon
  GI50: 1.47 µM
  TGI: 13.9 µM
UACC-257 melanoma
  GI50: 0.649 µM
  TGI: 4.4 µM
T-47D breast
  GI50: 1.1 µM
  TGI: 38.6 µM

## Cc1cc2c3c(nc4ccccc42)C(=O)c2cccnc2-c3n1
BT-549 breast
  GI50: 1.15 µM
  TGI: 2.41 µM
NCI-H23 lung
  GI50: 0.142 µM
  TGI: 0.466 µM
KM12 colon
  GI50: 0.142 µM
  TGI: 0.529 µM
SK-MEL-28 melanoma
  GI50: 0.976 µM
  TGI: 2.68 µM
OVCAR-8 ovarian
  GI50: 0.453 µM
SF-295 CNS
  GI50: 0.541 µM
  TGI: 1.91 µM
COLO 205 colon
  GI50: 1.13 µM
  TGI: 2.45 µM
HCC-2998 colon
  GI50: 0.311 µM
  TGI: 1.26 µM
UACC-257 melanoma
  GI50: 0.169 µM
  TGI: 0.55 µM
T-47D breast
  GI50: 0.749 µM
  TGI: 4.13 µM

## COc1ccc(-c2cc(-c3ccc(Cl)cc3)nc(SCCCC(=O)NO)n2)cc1OC
BT-549 breast
  GI50: 1.94 µM
  TGI: 12 µM
NCI-H23 lung
  GI50: 1.29 µM
  TGI: 5.53 µM
KM12 colon
  GI50: 1.34 µM
  TGI: 3.22 µM
SK-MEL-28 melanoma
  GI50: 1.2 µM
  TGI: 2.71 µM
OVCAR-8 ovarian
  GI50: 0.486 µM
  TGI: > 21 µM
SF-295 CNS
  GI50: 0.926 µM
  TGI: 2.75 µM
COLO 205 colon
  GI50: 1.73 µM
  TGI: 5.06 µM
HCC-2998 colon
  GI50: 1.5 µM
  TGI: 3.05 µM
UACC-257 melanoma
  GI50: 1.81 µM
  TGI: 4.89 µM
T-47D breast
  GI50: 1.88 µM
  TGI: 18.1 µM

## CN1CCC(=C(c2ccc(Cl)cc2)c2ccccn2)CC1
BT-549 breast
  GI50: 79.8 µM
  TGI: > 100 µM
NCI-H23 lung
  GI50: > 100 µM
  TGI: > 100 µM
KM12 colon
  GI50: > 100 µM
  TGI: > 100 µM
SK-MEL-28 melanoma
  GI50: 86.1 µM
  TGI: > 100 µM
OVCAR-8 ovarian
  GI50: > 100 µM
  TGI: > 100 µM
SF-295 CNS
  GI50: 37.6 µM
  TGI: > 100 µM
COLO 205 colon
  GI50: 31.7 µM
  TGI: > 100 µM
HCC-2998 colon
  GI50: > 100 µM
  TGI: > 100 µM
UACC-257 melanoma
  GI50: 21.5 µM
  TGI: 45.8 µM
T-47D breast
  GI50: > 100 µM
  TGI: > 100 µM

## N#CC(Cl)CS(=O)(=O)c1ccccc1 (centres undefined)
BT-549 breast
  TGI: 30.9 µM
NCI-H23 lung
  TGI: 33.5 µM
KM12 colon
  TGI: 33.3 µM
SK-MEL-28 melanoma
  TGI: 28 µM
OVCAR-8 ovarian
  TGI: 11.1 µM
SF-295 CNS
  TGI: 36.3 µM
COLO 205 colon
  TGI: 3.8 µM
HCC-2998 colon
  TGI: 29.4 µM
UACC-257 melanoma
  TGI: 14 µM
T-47D breast
  TGI: 6.06 µM

## CN(C)C/C=C/C(=O)Nc1ccc(C(=O)Nc2cccc(Nc3ncc(Cl)c(-c4c[nH]c5ccccc45)n3)c2)cc1
BT-549 breast
  GI50: 0.0336 µM
  TGI: 0.42 µM
NCI-H23 lung
  GI50: 0.0257 µM
  TGI: 0.133 µM
KM12 colon
  GI50: 0.0747 µM
  TGI: 0.232 µM
SK-MEL-28 melanoma
  GI50: 0.0215 µM
  TGI: 0.532 µM
OVCAR-8 ovarian
  GI50: 0.0428 µM
  TGI: > 100 µM
SF-295 CNS
  GI50: 0.155 µM
  TGI: 0.475 µM
COLO 205 colon
  GI50: 0.0121 µM
  TGI: 0.0562 µM
HCC-2998 colon
  GI50: 0.0154 µM
  TGI: 0.203 µM
UACC-257 melanoma
  GI50: 0.0216 µM
  TGI: > 100 µM
T-47D breast
  GI50: 0.0284 µM
  TGI: > 100 µM

## CC(=O)CCC[C@@H](C)[C@@H]1O[C@H]([C@@]2(C)CCC(=O)O2)CC2[C@H]1OC(=O)C21CC1 (some centres undefined)
BT-549 breast
  GI50: 25.5 µM
  TGI: 63.4 µM
NCI-H23 lung
  GI50: 15.3 µM
  TGI: 59.6 µM
KM12 colon
  GI50: > 100 µM
  TGI: > 100 µM
SK-MEL-28 melanoma
  GI50: > 100 µM
  TGI: > 100 µM
OVCAR-8 ovarian
  GI50: > 100 µM
  TGI: > 100 µM
SF-295 CNS
  GI50: 61.6 µM
  TGI: > 100 µM
COLO 205 colon
  GI50: > 100 µM
  TGI: > 100 µM
HCC-2998 colon
  GI50: 77.2 µM
  TGI: > 100 µM
UACC-257 melanoma
  GI50: 50.7 µM
  TGI: > 100 µM
T-47D breast
  GI50: > 100 µM
  TGI: > 100 µM

## N#Cc1ncc(-c2ccc(C(F)(F)F)cc2)c(NC2CCCCCC2)n1
BT-549 breast
  GI50: 29.1 µM
  TGI: > 100 µM
NCI-H23 lung
  GI50: 6.48 µM
  TGI: > 100 µM
KM12 colon
  GI50: 13.6 µM
  TGI: > 100 µM
SK-MEL-28 melanoma
  GI50: 71.5 µM
  TGI: > 100 µM
OVCAR-8 ovarian
  GI50: 70.8 µM
  TGI: > 100 µM
SF-295 CNS
  GI50: 27.5 µM
  TGI: > 100 µM
COLO 205 colon
  GI50: 13.2 µM
  TGI: 62.1 µM
HCC-2998 colon
  GI50: 13.2 µM
  TGI: > 100 µM
UACC-257 melanoma
  GI50: 13.7 µM
  TGI: > 100 µM
T-47D breast
  GI50: 6 µM
  TGI: > 100 µM

## O=C(CC(O)(C(F)(F)F)C(F)(F)F)c1cccs1
BT-549 breast
  TGI: > 10 µM
NCI-H23 lung
  TGI: > 10 µM
KM12 colon
  TGI: > 10 µM
SK-MEL-28 melanoma
  TGI: > 10 µM
OVCAR-8 ovarian
  TGI: > 10 µM
SF-295 CNS
  TGI: > 10 µM
COLO 205 colon
  TGI: > 10 µM
HCC-2998 colon
  TGI: > 10 µM
UACC-257 melanoma
  TGI: > 10 µM
T-47D breast
  TGI: > 10 µM
